Experiments:
Staphylococcus aureus [1] = test: Antimicrobial activity against methicillin-resistant Staphylococcus aureus N315 IR94 by serial dilution method; assay type: functional
Staphylococcus aureus [2] = test: Antimicrobial activity against methicillin-resistant Staphylococcus aureus 92-1191 by serial dilution method; assay type: functional
Staphylococcus aureus [3] = test: Antimicrobial activity against Staphylococcus aureus Smith by serial dilution method; assay type: functional
Staphylococcus aureus [4] = test: Antimicrobial activity against Staphylococcus aureus ISP447 by serial dilution method; assay type: functional
Enterococcus faecalis = test: Antimicrobial activity against vancomycin-resistant Enterococcus faecalis NCTC-12201 by serial dilution method; assay type: functional
Staphylococcus aureus [5] = test: Antimicrobial activity against methicillin-resistant Staphylococcus aureus N315 IR94-HR-1 by serial dilution method; assay type: functional
Staphylococcus aureus [6] = test: Antimicrobial activity against Staphylococcus aureus ISP217 by serial dilution method; assay type: functional
Staphylococcus aureus [7] = test: Antimicrobial activity against Staphylococcus aureus FDA209P by serial dilution method; assay type: functional
Staphylococcus aureus [8] = test: (§1) Antimicrobial activity against Staphylococcus aureus 8325 by serial dilution method; assay type: functional
Staphylococcus aureus [9] = test: as §1; assay type: functional; remark: listed apart in the source
Enterococcus faecium = test: Antimicrobial activity against vancomycin-resistant Enterococcus faecium NCTC-12203 by serial dilution method
Staphylococcus aureus [10] = test: Antimicrobial activity against methicillin-resistant Staphylococcus aureus 70 by serial dilution method; assay type: functional
Escherichia coli = test: Antimicrobial activity against Escherichia coli NIHJ JC-2 by serial dilution method; assay type: functional

Measured: MIC

CC[C@H]1OC(=O)[C@H](C)[C@@H](O)[C@H](C)[C@@H](O[C@@H]2O[C@H](C)C[C@H](N(C)C)[C@H]2OC(C)=O)[C@@]2(C)CC(C)=C(O2)[C@H](C)[C@@H](OC(=O)C(C)C)[C@]1(C)OC(=O)C(C)C
> 128 µg/mL: Staphylococcus aureus [3] | Escherichia coli
128 µg/mL: Staphylococcus aureus [4] | Staphylococcus aureus [8]
64 µg/mL: all other assays above

CC[C@H]1OC(=O)[C@H](C)[C@@H](OCc2cn(CC(=O)OCc3ccccc3)nn2)[C@H](C)[C@@H](O[C@@H]2O[C@H](C)C[C@H](N(C)C)[C@H]2O)[C@@]2(C)CC(C)=C(O2)[C@H](C)[C@@H](OC(=O)C(C)C)[C@]1(C)OC(=O)C(C)C
> 128 µg/mL: Escherichia coli
128 µg/mL: Staphylococcus aureus [3]
32 µg/mL: Staphylococcus aureus [2] | Enterococcus faecalis | Staphylococcus aureus [7] | Enterococcus faecium
64 µg/mL: Staphylococcus aureus [4] | Staphylococcus aureus [8]
16 µg/mL: all other assays above

C#CCO[C@H]1[C@H](C)[C@@H](O[C@@H]2O[C@H](C)C[C@H](N(C)C)[C@H]2O)[C@@]2(C)CC(C)=C(O2)[C@H](C)[C@@H](OC(=O)C(C)C)[C@](C)(OC(=O)C(C)C)[C@@H](CC)OC(=O)[C@@H]1C
32 µg/mL: Staphylococcus aureus [3] | Staphylococcus aureus [4] | Staphylococcus aureus [7] | Staphylococcus aureus [8]
> 128 µg/mL: Escherichia coli
16 µg/mL: all other assays above

CC[C@H]1OC(=O)[C@H](C)[C@@H](OCc2cn(Cc3ccccc3)nn2)[C@H](C)[C@@H](O[C@@H]2O[C@H](C)C[C@H](N(C)C)[C@H]2O)[C@@]2(C)CC(C)=C(O2)[C@H](C)[C@@H](OC(=O)C(C)C)[C@]1(C)OC(=O)C(C)C
8 µg/mL: Staphylococcus aureus [1] | Staphylococcus aureus [5] | Staphylococcus aureus [9]
> 128 µg/mL: Escherichia coli
32 µg/mL: Staphylococcus aureus [3]
16 µg/mL: all other assays above

CC[C@H]1OC(=O)[C@H](C)[C@@H](OCc2cn(C34CC5CC(CC(C5)C3)C4)nn2)[C@H](C)[C@@H](O[C@@H]2O[C@H](C)C[C@H](N(C)C)[C@H]2O)[C@@]2(C)CC(C)=C(O2)[C@H](C)[C@@H](OC(=O)C(C)C)[C@]1(C)OC(=O)C(C)C
16 µg/mL: Staphylococcus aureus [3] | Staphylococcus aureus [4] | Staphylococcus aureus [8]
> 128 µg/mL: Escherichia coli
8 µg/mL: all other assays above

CC[C@H]1OC(=O)[C@H](C)[C@@H](OCc2cn(-c3cnc4ccccc4c3)nn2)[C@H](C)[C@@H](O[C@@H]2O[C@H](C)C[C@H](N(C)C)[C@H]2O)[C@@]2(C)CC(C)=C(O2)[C@H](C)[C@@H](OC(=O)C(C)C)[C@]1(C)OC(=O)C(C)C
> 128 µg/mL: Escherichia coli
32 µg/mL: Staphylococcus aureus [3] | Staphylococcus aureus [4] | Enterococcus faecalis | Staphylococcus aureus [8]
8 µg/mL: Staphylococcus aureus [1] | Staphylococcus aureus [9]
16 µg/mL: all other assays above

CC[C@H]1OC(=O)[C@H](C)[C@@H](OCc2cn(-c3cccnc3)nn2)[C@H](C)[C@@H](O[C@@H]2O[C@H](C)C[C@H](N(C)C)[C@H]2O)[C@@]2(C)CC(C)=C(O2)[C@H](C)[C@@H](OC(=O)C(C)C)[C@]1(C)OC(=O)C(C)C
128 µg/mL: Staphylococcus aureus [8]
> 128 µg/mL: Escherichia coli
64 µg/mL: Staphylococcus aureus [3] | Staphylococcus aureus [4]
32 µg/mL: Staphylococcus aureus [2] | Enterococcus faecalis | Staphylococcus aureus [7]
16 µg/mL: all other assays above

CC[C@H]1OC(=O)[C@H](C)[C@@H](OCc2cn(CC(=O)Nc3ccccn3)nn2)[C@H](C)[C@@H](O[C@@H]2O[C@H](C)C[C@H](N(C)C)[C@H]2O)[C@@]2(C)CC(C)=C(O2)[C@H](C)[C@@H](OC(=O)C(C)C)[C@]1(C)OC(=O)C(C)C
> 128 µg/mL: Enterococcus faecalis | Escherichia coli
16 µg/mL: Staphylococcus aureus [1] | Staphylococcus aureus [5] | Staphylococcus aureus [6] | Staphylococcus aureus [9]
32 µg/mL: all other assays above

CC[C@H]1OC(=O)[C@H](C)[C@@H](OCc2cn(CCO)nn2)[C@H](C)[C@@H](O[C@@H]2O[C@H](C)C[C@H](N(C)C)[C@H]2O)[C@@]2(C)CC(C)=C(O2)[C@H](C)[C@@H](OC(=O)C(C)C)[C@]1(C)OC(=O)C(C)C
> 128 µg/mL: Staphylococcus aureus [3] | Staphylococcus aureus [4] | Escherichia coli
128 µg/mL: Staphylococcus aureus [2] | Enterococcus faecalis | Staphylococcus aureus [6] | Staphylococcus aureus [8]
64 µg/mL: all other assays above

CC[C@H]1OC(=O)[C@H](C)[C@@H](O[C@H]2C[C@@](C)(OC)[C@@H](O)[C@H](C)O2)[C@H](C)[C@@H](O[C@@H]2O[C@H](C)C[C@H](N(C)C)[C@H]2O)[C@@]2(C)CC(C)=C(O2)[C@H](C)[C@@H](OC(=O)C(C)C)[C@]1(C)OC(=O)C(C)C
32 µg/mL: Staphylococcus aureus [2] | Staphylococcus aureus [4] | Staphylococcus aureus [8] | Enterococcus faecium | Staphylococcus aureus [10]
> 128 µg/mL: Escherichia coli
64 µg/mL: Enterococcus faecalis
16 µg/mL: all other assays above

Source: ChEMBL document CHEMBL1140490, “Design and synthesis via click chemistry of 8,9-anhydroerythromycin A 6,9-hemiketal analogues with anti-MRSA and -VRE activity” (2007)
